Patent US6946137B2, “Methods for the controlled delivery of pharmacologically active compounds” (IDEXX Laboratories, Inc., priority 2001, dated 2005)
Counter-ions that a name gives are not always drawn. Like-named read-outs stand apart in the source and are kept apart here.

Assays:
[1] = in vitro release from dialysis bag into saline; assay type: physicochemical
[2] = stated as background, no test described, cited from earlier work
[3] = tested on: cats; details: previous data; cited from earlier work

Row | Compound | solubility in water / aqueous solutions (in words), known forms [2] | other results
1 | CNCCC(Oc1ccc(C(F)(F)F)cc1)c1ccccc1 (centres unmarked) [fluoxetine base formulation, Fluoxetine] |  | time over which the formulation was released in vitro ([1]; 100 mg/ml in 10% propylene glycol in glycerol formal, dialysis technique): about 160 hrs
2 | CN(C)C1C(O)=C(C(N)=O)C(=O)[C@@]2(O)C(O)=C3C(=O)c4c(O)cccc4[C@@](C)(O)C3C(O)C12 (some centres unmarked) [hydrochloride salt of oxytetracycline, Oxytetracycline] | readily soluble in water | 
3 | COCCc1ccc(OCC(O)CNC(C)C)cc1 (centres unmarked) [metoprolol base, Metoprolol] |  | in vitro release rate (in words) ([1]; dialysis bag into saline): diffused off rapidly
4 | COCCc1ccc(OCC(O)CNC(C)C)cc1 (centres unmarked) [metoprolol succinate, Metoprolol] | highly soluble in water | 
5 | CC[C@H]1OC(=O)C[C@@H](O)[C@H](C)[C@@H](OC2OC(C)C(O)C(N(C)C)C2O)[C@@H](CCN2C[C@@H](C)C[C@H](C)C2)C[C@@H](C)C(=O)/C=C/C(C)=C/[C@@H]1COC1OC(C)C(O)C(OC)C1OC (some centres unmarked) [phosphate salt of tilmicosin, Tilmicosin] |  | solubility in water / aqueous solutions (in words), known forms ([2]; listed as tilmicosin phosphate salt): highly soluble; dosage that could be fatal to cats [3]: 25 mg/kg
6 | CC[C@H]1OC(=O)C[C@@H](O)[C@H](C)[C@@H](OC2OC(C)C(O)C(N(C)C)C2O)[C@@H](CCN2C[C@@H](C)C[C@H](C)C2)C[C@@H](C)C(=O)/C=C/C(C)=C/[C@@H]1COC1OC(C)C(O)C(OC)C1OC (some centres unmarked) [tilmicosin basic form, Tilmicosin] | moderately soluble | 
7 | CC[C@H]1OC(=O)C[C@@H](O)[C@H](C)[C@@H](OC2OC(C)C(O)C(N(C)C)C2O)[C@@H](CCN2C[C@@H](C)C[C@H](C)C2)C[C@@H](C)C(=O)/C=C/C(C)=C/[C@@H]1COC1OC(C)C(O)C(OC)C1OC (some centres unmarked) [tilmicosin chloride salt, Tilmicosin] | highly soluble | 
